One experiment concerns PPARα. Particulars: GAL4 chimera transfection system; cited from earlier work.
Experiment [1] deals with NF-κB. As to the kind of experiment: EMSA of NF-κB DNA binding in nuclear extracts of treated myometrial cells. It is filed as cell-based, human. The note with it: myometrial cells; for IL-1β-induced NF-κB DNA binding: IL-1β stimulation 15 min. As for the experimental part: (§1) Electro-mobility shift assay (EMSA) analysis of NF-κB DNA binding in nuclear protein extracts from (A) myometrial cells, (B) L+amnion cells, and (C) L− amnion cells treated with 15dPGJ2 or vehicle for 2 h+/−IL-1b stimulation (15 min). Consensus kB probe used to assess NF-κB DNA binding, and consensus Oct-1 probe used as control.
Consensus κB probe used to assess NF-κB DNA binding, consensus Oct-1 probe used as control. For supershift analysis, extracts were preincubated with antibodies against p50 or p65.
EMSA analysis of nuclear protein extracts from myometrial cells treated with (A) WY-14643 or vehicle, and (B) high doses of troglitazone, WY-14643 or vehicle for 2 h followed by IL-1b stimulation (15 min). Consensus κB probe used to assess NFκB DNA binding, consensus Oct-1 and Sp-1 probes used as controls.
(§2) EMSA analysis of nuclear protein extracts from (A) myometrial cells, and (B) amnion cells treated with PGA1 or vehicle for 2 h followed by IL-1b stimulation (15 min). Consensus κB probe used to assess NFκB DNA binding, consensus Oct-1 probe used as control. For supershift analysis, extracts were preincubated with antibodies against p50 or p65.
(§3) Analysis of nuclear protein extracts from myometrial cells treated with PGE2 or vehicle for 2 h+/−TNFα or IL-1b stimulation (15 min). (A) EMSA using consensus κB probe. (B) Western immunoblot probing for nuclear p65.
(§4) EMSA analysis of nuclear protein extracts from (A) L− amnion cells and (B) myometrial cells treated with vehicle, PGE2 or IL-1β. Consensus κB probe used.
(§5) Myometrial tissue was collected at term from the upper margin of uterine incision at the time of lower segment caesarean section either prior to the onset of labour (L−) or […] (L+). L+ samples were collected by Dr Mark Johnson and Dr S Soorrana at Chelsea & Westminster Hospital. Myometrial tissue was dissected, rinsed in PBS, and digested in serum-free DMEM containing 15 mg/ml collagenase 1A (Sigma), 15 mg/ml collagenase X, and 50 mg/ml bovine serum albumin for 45 min at 37° C. The cell suspension was filtered through a cell strainer, centrifuged at 400 g for 5 min, and the pellet re-suspended and plated out in DMEM, 10% FCS (Helena BioScience), 1% L-glutamine, 1% penicillin-streptomycin. Cells were used between passage numbers 1-4.
(§6) Nuclear and cytosolic protein extracts were obtained from cultured amnion cells as described by Schreiber et al (1989). For nuclear/cytosolic fractionation, confluent cell monolayers were scraped and lysed using a buffer containing 10 mM HEPES, 10 mM KCl, 0.1 mM EDTA, 0.1 mM EGTA, 2 mM DTT, 1% (v/v) NP-40 and complete protease inhibitor tablets (CPIs, Roche), diluted to manufacturer's instructions. Cell lysates were incubated on ice for 10 min and NP-40 added to a final concentration of 1% (v/v). Lysates were vortexed for 10 secs and centrifuged for 30 secs at 4° C., 12000 g. The supernatants were retained as the cytosolic protein extracts. The pellets were resuspended in buffer containing 10 mM HEPES, 10 mM KCl, 0.1 mM EDTA, 0.1 mM EGTA, 2 mM DTT, 400 mM NaCl, 1% NP-40 (v/v) and CPIs. Samples were shaken vigorously for 15 min in an ice bath. The nuclear protein extracts were obtained in the supernatant following a 5 min centrifugation at 4° C., 12000 g.
(§7) Sense and antisense strands (175 nmole/ml each) were incubated in annealing buffer (10 mM Tris-HCl pH7.5, 100 mM NaCl, 1 mM EDTA) for 10 min at 65° C., and allowed to cool at room temperature for 2 h. 3.5 pmole double-stranded oligonucleotides were end-labelled with 0.37 MBq ^32P(γATP) by incubating for 30 min at 37° C. with T4 polynucleotide kinase. Labelled oligonucleotides were recovered by centrifugation at […] for 2 min through MicroSpin G-25 or G-50 sephadex columns (Amersham Biosciences). […]
In general terms: Mobility shift assays separate free from complexed probe on a gel.

Experiment [2] concerns NF-κB. As to the kind of experiment: NF-κB-dependent luciferase reporter (κB.BG.Luc) in myometrial cells. It is filed as cell-based, human. Particulars: treated 2 h, IL-1β 1 ng/ml 6 h. As to the method:
Myometrial cells were transiently transfected with the NFκB-dependent reporter construct κB.BG.Luc, treated with 15dPGJ2 or vehicle for 2 h, +/−IL-1β(1 ng/ml) for 6 h. […] Values are normalised for b-gal reporter activity. (NS=nonstimulated).
Myometrial cells were transfected with […] κB.BG.Luc reporter and 200 ng PPAR-γ expression vector and treated with 15d-PGJ2 for 2 h followed by IL-1β (1 ng/ml) for 6 h. Values are normalised for β-galactosidase reporter activity. (NS=nonstimulated).
as §5
pGL3.6 κB.BG.luc: a NF-κB-dependent reporter construct with 6 copies of the NF-κB binding site.
Cells were co-transfected with the renilla vector pRL-CMV or a β-galactosidase vector pCH110 as internal controls for transfection efficiencies.

The subject of experiment [3] is NF-κB. The experiment can be described thus: Western immunoblot of NF-κB activation (p65, p50, IκB) in amnion cells. It is filed as cell-based, human. The note with it: L−. As to the method:
(§8) Western immunoblots of nuclear or cytosolic protein extracts from (A) myometrial cells, (B) L− amnion cells, and (C) L+amnion cells treated with 15dPGJ2 or vehicle for 2 h+/−IL-1, stimulation (15 min). Blots probed with antibodies against p65, p50 or IκBα.
(§9) Placentae were obtained from patients at term either at elective Caesarean section prior to labour (L−) or following spontaneous labour onset and vaginal delivery (L+). Amnion cells were prepared as described in Bennett et al., (1989). Briefly, the amnion was separated from the placenta, washed 3× in PBS, cut into strips, and incubated in 0.51 mM EDTA in PBS for 15 min. The strips were washed in PBS 2× and digested with 2.5 mg/ml dispase in serum-free DMEM for 35 min at 37° C. The amnion was then shaken vigorously in DMEM, 10% FCS to dissociate the cells, the remaining strips discarded, and the cell suspension pelleted at 175 g for 10 min and cultured in DMEM, 10% FCS (Sigma), 1% L-glutamine, 1% penicillin-streptomycin.
as §6
Protein samples (20-70 μg) were mixed with Laemmli sample buffer (1:1) containing β-mercaptoethanol (5%), and boiled for 5 min. Proteins were then separated by SDS-PAGE (12-14% gels) and transferred onto PVDF membrane (Amersham Pharmacia Biotech). The membranes were blocked overnight in 5% non-fat milk prepared in PBS-T buffer, at 4° C. The blots were incubated with the primary antibody in 1% non-fat milk in PBS-T buffer for 1 h, and washed three times (10 min each) in PBS-T with vigorous shaking. The blots were then incubated with HRP-conjugated secondary antibody (diluted 1:2000 in 1% non-fat milk in PBS-T buffer) for 1 h and washed three times (10 min each) in PBS-T. Signal detection was achieved using enhanced chemi-luminescence (ECL plus system, Amersham Pharmacia Biotech) according to manufacturer's instructions. […]

In experiment [4] the test system is NF-κB. The experiment can be described thus: EMSA of NF-κB DNA binding in nuclear extracts of treated amnion cells. It is filed as cell-based, human. As for the experimental part: as §1
EMSA analysis of nuclear protein extracts from amnion cells treated with 15dPGJ2+/−GW9662 or vehicle for 2 h followed by IL-1β stimulation (15 min). Consensus kB probe used to assess NFκB DNA binding, consensus Oct-1 probe used as control.
as §2, §4, §9, §6, §7

Experiment [5] deals with NF-κB. As to the kind of experiment: Western immunoblot of NF-κB activation (p65, p50, IκB) in myometrial cells. On the set-up: Accumulation of phosphorylated IκBα: dose or concentration left out as unconfirmed. It is filed as cell-based, human. As to the method: as §8
Western immunoblot of nuclear or cytosolic protein extracts from myometrial cells treated with PGA1 or vehicle for 2 h followed by IL-1β stimulation (15 min). Blots probed with antibodies against p65 or IκBa.
as §3
Western immunoblots of cytosolic extracts from myometrial cells (A) treated with 15dPGJ2 for 2 h+/−IL1b for 15 min; probed for IKK, and (B) treated with […] 15dPGJ2, […] MG132 or vehicle for 2 h, +/−IL-1β for 15 min; probed for IκBα.
as §5, §6
Protein samples (20-70 μg) were mixed with Laemmli sample buffer (1:1) containing β-mercaptoethanol (5%), and boiled for 5 min. Proteins were then separated by SDS-PAGE (12-14% gels) and transferred onto PVDF membrane (Amersham Pharmacia Biotech). The membranes were blocked overnight in 5% non-fat milk prepared in PBS-T buffer, at 4° C. The blots were incubated with the primary antibody in 1% non-fat milk in PBS-T buffer for 1 h, and washed three times (10 min each) in PBS-T with vigorous shaking. The blots were then incubated with HRP-conjugated secondary antibody (diluted 1:2000 in 1% non-fat milk in PBS-T buffer) for 1 h and washed three times (10 min each) in PBS-T. Signal detection was achieved using enhanced chemi-luminescence (ECL plus system, Amersham Pharmacia Biotech) according to manufacturer's instructions.
30-50 μg protein extracts were subjected to SDS-PAGE and Western immuno-blotting. Secondary antibodies were IgG-HRP and ECL Plus detection kit (Amersham Pharmacia Biotech, Amersham Place, Little Chalfont, Bucks, HP7 9NA) was used for visualisation.

Residues, ends and D or L forms follow the SMILES beside them. *: point of attachment. Cbz = O=C(OCc1ccccc1)*

For the compound `Cc1cccc(Nc2cc(Cl)nc(SCC(=O)O)n2)c1C` [WY-14643, reference compound], in the experiment on PPARα, the “Doses that can transactivate PPARα” value is 5 to 25 µM. In addition, the “NF-κB DNA binding” value with NF-κB [1] (10-100 μM concentrations) was “had no effect”. Also, in the experiment with NF-κB [2], the “IL-1-induced NF-κB transcriptional activity” value is recorded as “not”.
As for `CCCCC(C)(C)[C@H](O)/C=C/[C@H]1[C@H](O)CC(=O)[C@@H]1C/C=C\CCCC(=O)O` [16,16-Dimethyl-PGE2], the “IL-1β-induced p65 nuclear translocation” value in the experiment with NF-κB [3] and in the experiment on NF-κB [5] was “did not inhibit” each time. Further, the “Induction of NF-κB DNA binding by the compound alone” value with NF-κB [4] (L− amnion cells) is “does not induce”. The “IL-1β-induced NF-κB DNA binding” value with NF-κB [4] (L− and L+ amnion cells, treated 2 h, IL-1β stimulation 15 min) is recorded as “did not inhibit”; in the experiment on NF-κB [1] (treated 2 h) it was “did not inhibit”. Moreover, the “Synergy with IL-1β or TNFα on NF-κB activity” value in the experiment on NF-κB [1] is “nor did it synergise”. Besides, the “TNFα- and IL-1β-induced NFκB activation” value with NF-κB [1] (treated 2 h, TNFα or IL-1b 15 min) is given as “does not inhibit”. The “Induction of NF-κB DNA binding / stimulation of NF-κB activity by the compound alone” value in the experiment with NF-κB [1] (listed as 16,16-dimethyl-PGE2) is recorded as “neither did it stimulate”; in the experiment on NF-κB [1] (listed as PGE2) it was “does not induce”.
Turning to `O=C(Nc1ccccc1)c1cc([N+](=O)[O-])ccc1Cl` [GW-9662], in the experiment on NF-κB [4] (amnion cells treated with 15d-PGJ2 in the presence of GW-9662), the “Alleviation of 15d-PGJ2 inhibition of NF-κB DNA binding” value is listed as “failed to alleviate”.
`CN(CCOc1ccc(C[C@H](Nc2ccccc2C(=O)c2ccccc2)C(=O)O)cc1)c1ccccn1` [GW1929, reference compound]: the “IL-1β-induced NF-κB DNA binding” value in the experiment on NF-κB [1] (treated 2 h) is on record as “failed to inhibit”. Also, the “IL-1-induced NF-κB transcriptional activity” value in the experiment with NF-κB [2] is reported as “not”.
Regarding `CC(C)C[C@@H](C=O)NC(=O)[C@H](CC(C)C)NC(=O)[C@H](CC(C)C)NC(=O)OCc1ccccc1` [MG132, reference compound] (Cbz-Leu-Leu-Leu-aldehyde), the “IL-1β-induced IκBα degradation” value in the experiment on NF-κB [5] was “prevented”. The “Accumulation of phosphorylated IκBα” value in the experiment on NF-κB [5] (2 h, IL-1β 15 min) is listed as “resulted in the accumulation”.

The record behind these values is US20070270392A1, “Use of a Cyclopentenone Prostaglandin for Delaying the Onset and/or Preventing the Continuation of Labour” (Imperial College Innovations Limited, priority 2003, published 2007).
